{"source": "patent US20260183396A1", "about": "“CXCR3 OVEREXPRESSION IN CAR-NK CELLS PRIMES MIGRATION/HOMING INTO THE TUMOR MICROENVIRONMENT” (DANA-FARBER CANCER INSTITUTE, INC., priority 2022, published 2026)", "key": {"IRF3": {"test_system": "IRF3", "test": "IRF3 immunofluorescence in PDOTS", "format": "cell-based, human", "settings": "PDOTS following treatment", "method": "PDOTS immunofluorescence and live/dead quantification. Dual labeling was performed by loading microfluidic devices with Nexcelom ViaStain acridine orange/propidium iodide (AO/PI) Staining Solution (Nexcelom, CS2-0106) or 10 μg/mL solution of Hoechst 33342 (Thermo Fisher Scientific) and 1 μg/mL solution of PI (Thermo Fisher Scientific). Following incubation with the dyes (20 minutes at room temperature in the dark for AO/PI or 45 minutes for Hoechst 33342/PI), images were captured using 4× objective of a Nikon Eclipse 80i fluorescence microscope equipped with automated motorized stage (Proscan), Z-stack (Prior), and Zyla 5.5 sCMOS camera (Andor). Image capture and analysis were performed using NIS-Elements AR software package. Live and dead cell quantitation was performed by measuring total cell area of each dye. For additional immunofluorescence studies, PDOTS were washed with PBS and blocked with FcR blocking reagent (Miltenyi) for 30 minutes at room temperature. Directly conjugated antibodies CD326 EpCAM-AlexaFluor647 (clone 9C4), CD45-AlexaFluor647 (HI30) (BioLegend), and mesothelin-PE (clone REA1057, Miltenyi) were diluted 1:50 in 10 μg/mL solution of Hoechst 33342 (Thermo Fisher Scientific) in PBS and loaded into microfluidic devices for 1-hour incubation at room temperature in the dark. Spheroids were washed twice with PBS with 0.1% Tween20 followed by PBS. […]"}, "H2591 MPM cells": {"test_system": "H2591 MPM cells", "test": "NK cell migration assay towards H2591 spheroids", "format": "cell-based, human", "method": "NK cell infiltration assay. Immune cell infiltration was assessed as previously described (Kitajima et al., Cancer Discov. 9:34-45 (2019); Mahadevan et al., Cancer Discov. 11:1952-1969 (2021)). Briefly, mesothelioma cancer cell spheroids (H2591, H2461, H226) were generated by seeding 5×10^5 cells in suspension in a ULA dish for 24 hours. […] Samples were then pelleted and resuspended in type I rat tail collagen (Corning) at a concentration of 2.5 mg/mL following the addition of 10×PBS with phenol red and pH adjustment using NaOH. pH 7.0-7.5 was confirmed using PANPEHA Whatman paper (Sigma-Aldrich). Cells and collagen were kept on ice to prevent polymerization. […]\nFor quantification, images were captured on a Nikon Eclipse 80i fluorescence microscope equipped with Z-stack (Prior) and CoolSNAP CCD camera (Roper Scientific). […] Quantification of immune cell infiltration into the 3D tumor microenvironment was performed by measuring the total cell area of cell tracker dye in the entire gel region. For the experiment with the CXCR3 neutralizing antibody (R&D MAB160; FIG. 6B), staining was quantified in a square region in the center of the channel to focus on effects of CXCR3 ligands released by tumor cells. Percent dead cell quantification was performed as in PDOTS as described above. […]"}, "NK cells": {"test_system": "NK cells", "test": "Immune cell toxicity assays, NK cells", "format": "cell-based", "settings": "72 hours of high dose exposure; regardless of IL-2 or co-culture with TILs", "method": "Immune Cell Toxicity Assays. […] Following treatment, samples were stained with anti-CD45, anti-CD3, anti-CD4, anti-CD8, and anti-CD56 antibodies (Table 1), as well as Zombie Green live/dead (Biolegend 423111) and analyzed by flow cytometry as described above. Data were analyzed using FlowJo software version 10.5.3. As an orthogonal measure of viability, CellTiter-Glo was performed on primary T-cells and NK cells.\nCellTiter-Glo luminescent cell viability assay. Cell viability was assessed using the CellTiter-Glo Luminescent Cell Viability assay (Promega, G7571) according to manufacturer's instructions. […] All conditions were tested in triplicate and plates were read on a Tecan Infinite Mplex Microplate Reader."}, "MPM PDOTS": {"test_system": "MPM PDOTS", "test": "PDOTS live/dead quantification ex vivo", "format": "cell-based", "protocol": "Patient-derived organotypic tumor spheroids (PDOTS). […] Briefly, fresh tumor specimens were minced in a 15 mL falcon tube in prewarmed to 37° C. full media (DMEM from Thermo Fisher Scientific+10% FBS)+100 U/mL collagenase type IV (Life Technologies) and 50 μg/mL dNase I (Roche) for approximately 20 minutes using sterile scissors and pipetting. Dissociated material was strained over 100-μm filter and 40-μm filters to generate S1 (>100 μm), S2 (40-100 μm), and S3 (<40 μm) spheroid fractions, which were subsequently maintained in ultralow-attachment (ULA) tissue culture plates (Corning). […] S2 fractions were used for ex vivo culture by resuspending them in type I rat tail collagen (Corning) at a concentration of 2.8 mg/mL prior to loading into the center gel region of the 3-D microfluidic culture device (AIM Biotech) and incubation for 40 minutes at 37° C. in humidity chambers to allow for polymerization. […]\nPDOTS immunofluorescence and live/dead quantification. […] Following incubation with the dyes (20 minutes at room temperature in the dark for AO/PI or 45 minutes for Hoechst 33342/PI), images were captured using 4× objective of a Nikon Eclipse 80i fluorescence microscope equipped with automated motorized stage (Proscan), Z-stack (Prior), and Zyla 5.5 sCMOS camera (Andor). […] Live and dead cell quantitation was performed by measuring total cell area of each dye."}, "granzyme B": {"test_system": "granzyme B", "test": "Granzyme B ELISA, NK / MPM co-culture", "format": "cell-based, human", "settings": "only in co-culture with MPM cells expressing STING", "method": "Cytokine analysis. CXCL10 ELISA (R&D Systems DIP100) and granzyme B ELISA (R&D systems DY008) were performed according to manufacturer's instructions on conditioned media collected from cell culture. Cytokine analysis of conditioned media after 3 days of explant (S1) culture (FIG. 9B) utilized the MSD U-PLEX Viral Combo 1 assay (Hu: K15343K-2), which was performed according to manufacturer's instructions."}}}
{"molecule": "Nc1ncnc2c1ncn2[C@@H]1O[C@@H]2COP(=O)([S-])O[C@@H]3[C@H](O)[C@@H](COP([O-])(=S)O[C@H]2[C@H]1O)O[C@H]3n1cnc2c(N)ncnc21.[Na+].[Na+]", "note": "(stereo partly shown) [ADU-S100]", "values": [{"measurement": "IRF3 localisation", "setting": "IRF3", "value": "nuclear translocation"}, {"measurement": "migration of cNK cells", "setting": "H2591 MPM cells", "value": "increased migration"}, {"measurement": "migration of cNK overexpressing CXCR3", "setting": "H2591 MPM cells", "value": "decreased migration"}, {"measurement": "cytotoxicity in human NK cells", "setting": "NK cells", "value": "no significant cytotoxicity"}, {"measurement": "specimens approximating clinical criteria for response with >30% decrease in cell area, p<0.05", "setting": "MPM PDOTS; 35 MPM patient specimens ex vivo", "value": 7, "unit": "specimens"}, {"measurement": "primary NK cell response in MPM PDOTS", "setting": "MPM PDOTS; combined treatment with primary NK cells, cells from 2 out of 3 donors", "value": "significantly enhanced"}, {"measurement": "granzyme release by NK cells", "setting": "granzyme B", "value": "enhanced"}]}
